Results published in PMC4348352 (Bioorganic & medicinal chemistry letters, 2015).
≈ marks a conversion by molar mass, not a printed value.

What was measured:
B. anthracis = conditions: cited from earlier work
E. coli = conditions: cited from earlier work
S. aureus = conditions: cited from earlier work
F. tularensis = experiment: microbe, parasite or virus in culture; type: cell-based; conditions: Francisella tularensis
E. coli TolC- = experiment: microbe, parasite or virus in culture; type: cell-based; conditions: Escherichia coli

Structure (SMILES): Cc1cc2ncn(Cc3ccc(Cl)c(Cl)c3)c2cc1C [Compound 1]
- MIC (B. anthracis): 9.4 µg/mL (≈ 30.8 µM)
- MIC (E. coli): >200 µg/mL
- MIC (S. aureus): 25 µg/mL (≈ 81.9 µM)

Structure (SMILES): CC(c1ccc(Cl)c(Cl)c1)n1cnc2cc3c(cc21)CCC3 (stereo not drawn) [Compound 3]
- MIC (F. tularensis): 3.1 to 6.3 µg/mL (≈ 9.36 to 19 µM)

Structure (SMILES): CC(c1ccc(Cl)c(Cl)c1)n1cnc2cc3c(cc21)CCCC3 (stereo not drawn) [Compound 4]
- MIC (F. tularensis): 3.1 to 6.3 µg/mL (≈ 8.98 to 18.2 µM)
- MBC (E. coli TolC-): > 25 µg/mL
